Patent US9212168B2 (priority 2011, dated 2015)

Test system: HCV genotype 1a replicon
Assay: HCV genotype 1a replicon assay (NS3 protease activity readout)
Type: cell-based, hepatitis C virus
Details: HCV genotype 1a replicon
Procedure: Assay 2: HCV Genotype 1a Replicon Assay
The HCV genotype 1a replicon cell line was obtained from Apath LLC (APC89; Huh7.5 cell background). This subgenomic replicon contains the N-terminus of the HCV core protein fused to the neomycin-resistance selectable marker. The EMCV IRES lies downstream and drives expression of the non-structural proteins NS3-NS5B. Compound potencies were determined using the NS3-specific protease activity in lysates as a measurement of compound inhibition of replicon levels.
Cells were grown at 37° C. in a 5% CO2 humidified incubator in DMEM (Invitrogen) with 10% FBS (HyClone), 1×NEAA (Invitrogen), 1× Pen-Strep (Invitrogen), and 850 μg/mL G418 (Invitrogen). On day 1 of the assay, cells were plated at 15,000 cells/well in black 96-well tissue culture plates (Costar) in 200 μL media lacking G418. Four hours later, once the cells had adhered, the media was removed and replaced with media (no G418) containing dose-responses of test compounds. Compounds were initially diluted in DMSO and then diluted another 200× in media to bring the final DMSO concentration down to 0.5%. The cells were incubated with test compounds for 48 or 72 hours. At the end of the incubation period, media and compound were removed from the plates.
To determine the NS3-specific protease activity in lysates, the cells were lysed at room temperature in 50 μL/well of 50 mM Hepes pH 7.5, 150 mM NaCl, 15% Glycerol, 0.15% Triton X-100, 10 mM DTT for 20 minutes with shaking. 50 μL of an NS3/4a protease-specific FRET substrate (Anaspec RET S1 Cat#22991) was then added to the wells at a final concentration of 15 μM. The plates were incubated at 37° C. for 20 minutes, which corresponds to a timepoint at which the protease activity is still in the linear phase. Protease activity was determined by measuring fluorescence (Excitation: 340 nm; Emission: 509 nm).
To analyze the data, the fluorescence was plotted vs. the compound concentration, and EC50 values were determined from a 4-parameter robust fit model using GraphPad Prism software.

Q: For COC(=O)NC(C(=O)N1CC(C)CC1c1nc(-c2ccc(-c3cc(Cl)c(NC(=O)c4ccc(N5CCN(C(=O)C6CC6(F)Cl)CC5C)nc4)cc3OC(F)(F)F)cc2)c[nH]1)C(C)C (mixture of isomers) [Example 1-59], which “Genotype 1a” value is on record?
A: D (D represents pEC50>10 (EC50<0.1 nM))

Q: COC(=O)NC(C(=O)N1CC(C)CC1c1nc(-c2ccc(-c3cc(F)c(NC(=O)c4ccc(N5CCN(C(=O)C6CC6(F)Cl)CC5C)nc4)cc3OC(F)(F)F)cc2)c[nH]1)C(C)C (mixture of isomers) [Example 1-60] was tested. Which “Genotype 1a” value did it give?
A: D (D represents pEC50>10 (EC50<0.1 nM))

Q: For COC(=O)NC(C(=O)N1CC(C)CC1c1nc(-c2ccc(-c3cc(F)c(NC(=O)c4ccc(N5CCN(C(=O)C6CC6(Cl)Cl)CC5C)nc4)cc3Cl)cc2)c[nH]1)C(C)C (mixture of isomers) [Example 1-77], which “Genotype 1a” value is on record?
A: D (D represents pEC50>10 (EC50<0.1 nM))

Q: For COC(=O)N[C@H](C(=O)N1C[C@@H](C)C[C@H]1c1nc(-c2ccc(-c3cc(Cl)c(NC(=O)c4ccc(N5CCN(C(=O)C6CC6(Cl)Cl)C[C@H]5C)nc4)cc3OC(F)(F)F)cc2)c[nH]1)C(C)C (single isomer, unassigned) [Example 1-56], which “Genotype 1a” value is on record?
A: D (D represents pEC50>10 (EC50<0.1 nM))

Q: COC(=O)N[C@H](C(=O)N1C[C@@H](C)C[C@H]1c1nc(-c2ccc(-c3cc(Cl)c(NC(=O)c4ccc(N5CCN(C(=O)C6CC6(Cl)Cl)C[C@H]5C)nc4)cc3OC(F)(F)F)cc2)c[nH]1)C(C)C (single isomer, unassigned) [Example 1-57] was tested. Which “Genotype 1a” value did it give?
A: D (D represents pEC50>10 (EC50<0.1 nM))

Q: With COC(=O)NC(C(=O)N1C[C@@H](C)C[C@H]1c1nc(-c2ccc(-c3cc(Cl)c(NC(=O)c4ccc(N5CCN(C(=O)C(C)(C)CO)C[C@H]5C)nc4)cc3C(F)(F)F)cc2)c[nH]1)C1CCS(=O)(=O)CC1 (single isomer, unassigned) [Example 19-1] as the compound, how does the “Genotype 1a” value read?
A: D (D represents pEC50>10 (EC50<0.1 nM))

Q: COC(=O)NC(C(=O)N1C[C@@H](OC)C[C@H]1c1nc(-c2ccc(-c3cc(Cl)c(NC(=O)c4ccc(N5CCN(C(=O)C(C)(C)CO)C[C@H]5C)nc4)cc3C(F)(F)F)cc2)c[nH]1)C1CCS(=O)(=O)CC1 (single isomer, unassigned) [Example 19-12] was tested. Which “Genotype 1a” value did it give?
A: D (D represents pEC50>10 (EC50<0.1 nM))

Q: Which “Genotype 1a” value does the source give for COC(=O)NC(C(=O)N1C[C@@H](OC)C[C@H]1c1nc(-c2ccc(-c3cc(Cl)c(NC(=O)c4ccc(N5CCN(C(=O)C(C)(C)C)C[C@H]5C)nc4)cc3C(F)(F)F)cc2)c[nH]1)C1CCS(=O)(=O)CC1 (single isomer, unassigned) [Example 19-18] here?
A: C (C represents pEC50 between and 9 and about 10, (EC50 between 1 nM and 0.1 nM))

Q: For COC(=O)N[C@H](C(=O)N1C[C@@H](C)C[C@H]1c1nc(-c2ccc(-c3cc(Cl)c(C(=O)Nc4ccc(N5CCN(C(=O)C(C)(C)C)C[C@@H]5C)nc4)cc3OC(F)(F)F)cc2)c[nH]1)C1CCOCC1 [24-2], which “Genotype 1a” value is on record?
A: C (C represents pEC50 between and 9 and about 10, (EC50 between 1 nM and 0.1 nM))

Q: How did the “Genotype 1a” value turn out when COC(=O)N[C@H](C(=O)N1C[C@H](C)C[C@H]1c1nc(-c2ccc(-c3cc(Cl)c(C(=O)Nc4ccc(N5CCN(C(=O)C(C)(C)C)C[C@H]5C)nc4)cc3OC(F)(F)F)cc2)c[nH]1)C1CCOCC1 [24-5] was run?
A: C (C represents pEC50 between and 9 and about 10, (EC50 between 1 nM and 0.1 nM))

Q: For COC(=O)N[C@H](C(=O)N1C[C@@H](C)C[C@H]1c1nc(-c2ccc(-c3cc(F)c(NC(=O)c4ccc(N5C[C@H](C)N(C(=O)c6c[nH]cn6)C[C@H]5C)nc4)cc3C(F)(F)F)cc2)c[nH]1)C(C)C [Example 1-21], which “Genotype 1a” value is on record?
A: D (D represents pEC50>10 (EC50<0.1 nM))

Q: For CNC(=O)N1CCC[C@@]1(C)C(=O)N1CCN(c2ccc(C(=O)Nc3cc(OC(F)(F)F)c(-c4ccc(-c5c[nH]c([C@@H]6C[C@H](C)CN6C(=O)[C@@H](NC(=O)OC)C(C)C)n5)cc4)cc3Cl)cn2)[C@H](C)C1 [Example 1-22], which “Genotype 1a” value is on record?
A: D (D represents pEC50>10 (EC50<0.1 nM))

Q: Which “Genotype 1a” value does the source give for CNC(=O)N1CCC[C@@]1(C)C(=O)N1C[C@@H](C)N(c2ccc(C(=O)Nc3cc(OC(F)(F)F)c(-c4ccc(-c5c[nH]c([C@@H]6C[C@H](C)CN6C(=O)[C@@H](NC(=O)OC)C(C)C)n5)cc4)cc3Cl)cn2)C[C@@H]1C [Example 1-23] here?
A: D (D represents pEC50>10 (EC50<0.1 nM))

Q: For CNC(=O)N1CCC[C@@]1(C)C(=O)N1C[C@@H](C)N(c2ccc(C(=O)Nc3cc(OC(F)(F)F)c(-c4ccc(-c5c[nH]c([C@@H]6C[C@H](C)CN6C(=O)[C@@H](NC(=O)OC)C(C)C)n5)cc4)cc3F)cn2)C[C@@H]1C [Example 1-24], which “Genotype 1a” value is on record?
A: D (D represents pEC50>10 (EC50<0.1 nM))

Q: With COC(=O)N[C@H](C(=O)N1C[C@@H](C)C[C@H]1c1nc(-c2ccc(-c3cc(F)c(NC(=O)c4ccc(N5CCN(C(=O)c6c[nH]cn6)C[C@H]5C)nc4)cc3OC(F)(F)F)cc2)c[nH]1)C(C)C [Example 1-25] as the compound, how does the “Genotype 1a” value read?
A: D (D represents pEC50>10 (EC50<0.1 nM))

Q: COC(=O)N[C@H](C(=O)N1C[C@@H](C)C[C@H]1c1nc(-c2ccc(-c3cc(F)c(NC(=O)c4ccc(N5CCN(C(=O)[C@]6(C)CCCN6C(=O)OC(C)(C)C)C[C@H]5C)nc4)cc3OC(F)(F)F)cc2)c[nH]1)C(C)C [Example 1-26] was tested. Which “Genotype 1a” value did it give?
A: D (D represents pEC50>10 (EC50<0.1 nM))

Q: For COC(=O)N[C@H](C(=O)N1C[C@@H](C)C[C@H]1c1nc(-c2ccc(-c3cc(F)c(NC(=O)c4ccc(N5CCN(C(=O)[C@]6(C)CCCN6)C[C@H]5C)nc4)cc3OC(F)(F)F)cc2)c[nH]1)C(C)C [Example 1-27], which “Genotype 1a” value is on record?
A: C (C represents pEC50 between and 9 and about 10, (EC50 between 1 nM and 0.1 nM))

Q: For CNC(=O)N1CCC[C@@]1(C)C(=O)N1CCN(c2ccc(C(=O)Nc3cc(OC(F)(F)F)c(-c4ccc(-c5c[nH]c([C@@H]6C[C@H](C)CN6C(=O)[C@@H](NC(=O)OC)C(C)C)n5)cc4)cc3F)cn2)[C@H](C)C1 [Example 1-28], which “Genotype 1a” value is on record?
A: D (D represents pEC50>10 (EC50<0.1 nM))

Q: COC(=O)N[C@H](C(=O)N1C[C@@H](C)C[C@H]1c1nc(-c2ccc(-c3cc(F)c(NC(=O)c4ccc(N5CCN(C(=O)c6c[nH]cn6)C[C@H]5C)nc4)cc3C(F)(F)F)cc2)c[nH]1)C(C)C [Example 1-29] was tested. Which “Genotype 1a” value did it give?
A: D (D represents pEC50>10 (EC50<0.1 nM))

Q: Which “Genotype 1a” value does the source give for COC(=O)N[C@H](C(=O)N1C[C@@H](C)C[C@H]1c1nc(-c2ccc(-c3cc(Cl)c(NC(=O)c4ccc(N5CCN(C(=O)[C@H]6CC6(C)C)C[C@H]5C)nc4)cc3C(F)(F)F)cc2)c[nH]1)C(C)C [Example 1-31] here?
A: D (D represents pEC50>10 (EC50<0.1 nM))

Q: COC(=O)N[C@H](C(=O)N1C[C@@H](C)C[C@H]1c1nc(-c2ccc(-c3cc(Cl)c(NC(=O)c4ccc(N5CCN(C(=O)c6c[nH]cn6)C[C@H]5C)nc4)cc3C(F)(F)F)cc2)c[nH]1)C(C)C [Example 1-32] was tested. Which “Genotype 1a” value did it give?
A: D (D represents pEC50>10 (EC50<0.1 nM))

Q: With COC(=O)N[C@H](C(=O)N1C[C@@H](C)C[C@H]1c1nc(-c2ccc(-c3cc(Cl)c(NC(=O)c4ccc(N5CCN(C(=O)c6cn(C)cn6)C[C@H]5C)nc4)cc3OC(F)(F)F)cc2)c[nH]1)C(C)C [Example 1-33] as the compound, how does the “Genotype 1a” value read?
A: C (C represents pEC50 between and 9 and about 10, (EC50 between 1 nM and 0.1 nM))

Q: Which “Genotype 1a” value does the source give for COC(=O)N[C@H](C(=O)N1C[C@@H](C)C[C@H]1c1nc(-c2ccc(-c3cc(Cl)c(NC(=O)c4ccc(N5CCN(C(=O)[C@H]6CCCN6C(=O)OC)C[C@H]5C)nc4)cc3OC(F)(F)F)cc2)c[nH]1)C(C)C [Example 1-37] here?
A: D (D represents pEC50>10 (EC50<0.1 nM))

Q: CNC(=O)N1CCC[C@@H]1C(=O)N1CCN(c2ccc(C(=O)Nc3cc(OC(F)(F)F)c(-c4ccc(-c5c[nH]c([C@@H]6C[C@H](C)CN6C(=O)[C@@H](NC(=O)OC)C(C)C)n5)cc4)cc3Cl)cn2)[C@H](C)C1 [Example 1-38] was tested. Which “Genotype 1a” value did it give?
A: D (D represents pEC50>10 (EC50<0.1 nM))

Q: With COC(=O)N[C@H](C(=O)N1C[C@@H](C)C[C@H]1c1nc(-c2ccc(-c3cc(Cl)c(NC(=O)c4ccc(N5CCN(C(=O)[C@H]6CCCN6S(C)(=O)=O)C[C@H]5C)nc4)cc3OC(F)(F)F)cc2)c[nH]1)C(C)C [Example 1-39] as the compound, how does the “Genotype 1a” value read?
A: D (D represents pEC50>10 (EC50<0.1 nM))

Q: COC(=O)N[C@H](C(=O)N1C[C@@H](C)C[C@H]1c1nc(-c2ccc(-c3cc(Cl)c(NC(=O)c4ccc(N5CCN(C(=O)C6CC6)C[C@H]5C)nc4)cc3OC(F)(F)F)cc2)c[nH]1)C(C)C [Example 1-42] was tested. Which “Genotype 1a” value did it give?
A: D (D represents pEC50>10 (EC50<0.1 nM))

Q: With CNC(=O)N1CCC[C@@H]1C(=O)N1C[C@@H](C)N(c2ccc(C(=O)Nc3cc(OC(F)(F)F)c(-c4ccc(-c5c[nH]c([C@@H]6C[C@H](C)CN6C(=O)[C@@H](NC(=O)OC)C(C)C)n5)cc4)cc3Cl)cn2)C[C@@H]1C [Example 1-44] as the compound, how does the “Genotype 1a” value read?
A: D (D represents pEC50>10 (EC50<0.1 nM))

Q: Which “Genotype 1a” value does the source give for COC(=O)N[C@H](C(=O)N1C[C@@H](C)C[C@H]1c1nc(-c2ccc(-c3cc(Cl)c(NC(=O)c4ccc(N5C[C@H](C)N(C(=O)[C@H]6CCCN6S(C)(=O)=O)C[C@H]5C)nc4)cc3OC(F)(F)F)cc2)c[nH]1)C(C)C [Example 1-45] here?
A: D (D represents pEC50>10 (EC50<0.1 nM))
